In one series the target is T1, BRD3(1) (Homo sapiens, UniProt Q15059).
T1 construct: using recombinant BRDs as surrogates of full-length protein
The series is described as follows: DSF (ΔTm) selectivity panel. It counts as binding. The settings on record: compound 10 µM.

In the next series the target is T2, BRD2(1) (Homo sapiens, UniProt P25440).
T2 construct: using recombinant BRDs as surrogates of full-length protein
Briefly: DSF (ΔTm) selectivity panel. It counts as binding. The settings on record: compound 10 µM.

Series [1] addresses T3, BRD4(1) (Homo sapiens, UniProt O60885). Briefly: DSF (ΔTm) thermal stability assay. The settings on record: compound concentration 10 μM, mean ± SEM (number of measurements). The format is binding.
Series [2] is described as follows: Human liver microsome (HLM) stability assay. It counts as in vitro ADME. The settings on record: microsomes, 1 h. Background: Liver microsomes are a subcellular fraction often used to study metabolism.
A further series concerns the target T4, alpha 2A (h) (Homo sapiens, UniProt P08913).
T4 construct: CEREP (BioPrint Full Panel, contract assay)
The series is described as follows: Cerep profiling, antagonist radioligand. The format is binding.

The next series has as its target T5, PDE5 (h) (non-selective) (Homo sapiens, UniProt O76074).
T5 construct: CEREP (BioPrint Full Panel, contract assay)
The series is described as follows: Cerep profiling. The format is biochemical.

Another series has as its target T6, alpha 2C (h) (Homo sapiens, UniProt P18825).
T6 construct: CEREP (BioPrint Full Panel, contract assay)
The series is described as follows: Cerep profiling, antagonist radioligand. It counts as binding.

Series [3] concerns GFP-tagged 3 × CBP BRD construct. The series is described as follows: Fluorescence recovery after photo-bleaching (FRAP) assay. The settings on record: HeLa cells, SAHA-treated, compound 0.1 μM.
Another series can be described thus: Cytotoxicity assay. As to conditions: human, U2OS osteosarcoma cells.
Series [4] deals with p53-driven luciferase activity in RKO cells. Briefly: p53 luciferase reporter assay. As to conditions: compound 24 h then doxorubicin 0.3 μM 16 h, read-out: Inhibition of doxorubicin-induced p53-driven luciferase activity IC50. The format is cell-based, human. As for the experimental part: Refinement was carried out in
refinement cycles. […] The
Cell culture and reagents
Fluorescence Recovery After Photobleaching (FRAP) Assay
In brief RKO cells were transfected with
well plate format using Fugene HD (Roche).
Compounds were dissolved in dimethyl sulfoxide
5 ul of compound solution was added
mixing plates returned to the incubator.
On the technique in general: A reporter such as luciferase makes a cellular process visible.

In another series the target is PAF (h) (Homo sapiens, UniProt P25105). The series is described as follows: Cerep profiling, agonist radioligand.
For series [5], the target named is T7, CBP (Homo sapiens, UniProt Q92793). The series is described as follows: DSF (ΔTm) thermal stability assay. It counts as binding. The settings on record: compound concentration 10 μM, mean ± SEM (number of measurements).
The target of series [6] is T8, BAZ2A (Homo sapiens, UniProt Q9UIF9).
T8 construct: using recombinant BRDs as surrogates of full-length protein
Briefly: DSF (ΔTm) thermal stability assay. The format is binding. As to conditions: compound 10 µM.

Series [7] has as its target T9, ATAD2 (Homo sapiens, UniProt Q6PL18).
T9 construct: using recombinant BRDs as surrogates of full-length protein
T9 sequence (Q6PL18 980-1092 limits assumed): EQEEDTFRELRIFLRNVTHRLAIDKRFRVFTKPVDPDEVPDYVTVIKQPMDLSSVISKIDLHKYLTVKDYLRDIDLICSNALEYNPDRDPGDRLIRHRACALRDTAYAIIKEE
Briefly: Peptide displacement AlphaScreen. It counts as binding. On the technique in general: In Alpha technology, singlet oxygen from a donor bead excites a nearby acceptor bead.

Series [8] has as its target T7, CBP. The series is described as follows: Peptide displacement AlphaScreen. The format is binding.
Series [9] has as its target T3, BRD4(1). The series is described as follows: Peptide displacement AlphaScreen. It counts as binding.
Series [10] addresses T9, ATAD2. The series is described as follows: DSF (ΔTm) thermal stability assay. The format is binding. As to conditions: compound 10 µM.
In series [11] the target is T8, BAZ2A. Briefly: Peptide displacement AlphaScreen. It counts as binding.
Series [12] addresses T10, BRD9 (Homo sapiens, UniProt Q9H8M2).
T10 construct: using recombinant BRDs as surrogates of full-length protein
T10 sequence (Q9H8M2 136-240 limits assumed): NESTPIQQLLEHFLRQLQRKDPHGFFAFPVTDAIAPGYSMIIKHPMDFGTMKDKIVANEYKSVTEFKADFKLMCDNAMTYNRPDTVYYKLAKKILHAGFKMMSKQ
Briefly: Peptide displacement AlphaScreen. The format is binding.

The target in series [13] is T10, BRD9. Briefly: DSF (ΔTm) selectivity panel. The format is binding. The settings on record: compound 10 µM.
Series [14] concerns the target T11, CECR2 (Homo sapiens, UniProt Q9BXF3).
T11 construct: using recombinant BRDs as surrogates of full-length protein
Briefly: Peptide displacement AlphaScreen. The format is binding.

Series [15] has as its target T12, p300 (Homo sapiens, UniProt Q09472).
T12 sequence (Q09472 1049-1156 limits assumed): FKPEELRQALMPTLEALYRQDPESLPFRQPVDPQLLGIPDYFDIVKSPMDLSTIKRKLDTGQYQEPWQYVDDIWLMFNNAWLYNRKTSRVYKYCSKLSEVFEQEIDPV
Briefly: Isothermal titration calorimetry (ITC).

The target in series [16] is T7, CBP. The series is described as follows: Isothermal titration calorimetry (ITC).
Series [17] concerns the target T12, p300. The series is described as follows: DSF (ΔTm) thermal stability assay. It counts as binding. As to conditions: compound 10 µM.
Series [18] deals with T3, BRD4(1). The series is described as follows: Isothermal titration calorimetry (ITC).
In series [19] the target is T11, CECR2. The series is described as follows: DSF (ΔTm) selectivity panel. The format is binding. The settings on record: compound 10 µM.
Series [20] addresses T12, p300. The series is described as follows: Peptide displacement AlphaScreen. The format is binding.
For series [21], the system named is p53-induced p21 activation. As to conditions: luciferase reporter-gene assay; read-out: Inhibition of p53-induced p21 activation IC50; cited from earlier work.
The next series concerns the target CBP BRD. As to conditions: cited from earlier work.
The next series deals with p53–CBP interaction. As to conditions: at 50 μM; cited from earlier work.

Each structure is given as a SMILES string. Where two headings read alike, the source gives them in different places.

T7 sequence (Q92793 1085-1192 limits assumed): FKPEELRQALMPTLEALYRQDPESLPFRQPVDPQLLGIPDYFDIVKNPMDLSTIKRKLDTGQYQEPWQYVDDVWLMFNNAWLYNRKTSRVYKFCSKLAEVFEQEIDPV
T8 sequence (Q9UIF9 1793-1897 limits assumed): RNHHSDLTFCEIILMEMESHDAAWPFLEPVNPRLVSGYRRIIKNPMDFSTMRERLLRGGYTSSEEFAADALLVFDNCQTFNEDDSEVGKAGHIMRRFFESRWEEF
T11 sequence (Q9BXF3 434-538 limits assumed): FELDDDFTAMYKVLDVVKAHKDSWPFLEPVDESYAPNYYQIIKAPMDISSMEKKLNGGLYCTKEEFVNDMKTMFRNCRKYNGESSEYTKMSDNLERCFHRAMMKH
T6 sequence (P18825 whole entry): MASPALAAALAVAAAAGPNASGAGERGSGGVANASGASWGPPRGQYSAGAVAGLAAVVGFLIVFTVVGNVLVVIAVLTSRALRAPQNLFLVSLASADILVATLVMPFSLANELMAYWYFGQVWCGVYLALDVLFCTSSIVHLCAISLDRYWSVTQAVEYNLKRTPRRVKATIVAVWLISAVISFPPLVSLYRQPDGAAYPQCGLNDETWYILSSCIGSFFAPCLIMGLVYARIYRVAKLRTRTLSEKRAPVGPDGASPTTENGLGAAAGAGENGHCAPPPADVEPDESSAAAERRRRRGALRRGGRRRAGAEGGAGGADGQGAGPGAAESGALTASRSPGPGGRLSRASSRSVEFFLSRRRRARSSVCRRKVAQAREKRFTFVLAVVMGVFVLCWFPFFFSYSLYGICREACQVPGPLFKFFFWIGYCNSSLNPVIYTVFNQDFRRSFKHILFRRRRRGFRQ
T1 sequence (Q15059 34-140 limits assumed): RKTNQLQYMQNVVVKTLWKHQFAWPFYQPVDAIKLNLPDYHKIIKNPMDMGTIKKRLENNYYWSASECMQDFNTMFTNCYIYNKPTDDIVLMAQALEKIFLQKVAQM
T2 sequence (P25440 74-180 limits assumed): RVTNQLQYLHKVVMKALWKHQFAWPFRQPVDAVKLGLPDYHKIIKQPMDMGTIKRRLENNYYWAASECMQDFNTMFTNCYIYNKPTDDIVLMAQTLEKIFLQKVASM
Sequence of PAF (h) (P25105 whole entry): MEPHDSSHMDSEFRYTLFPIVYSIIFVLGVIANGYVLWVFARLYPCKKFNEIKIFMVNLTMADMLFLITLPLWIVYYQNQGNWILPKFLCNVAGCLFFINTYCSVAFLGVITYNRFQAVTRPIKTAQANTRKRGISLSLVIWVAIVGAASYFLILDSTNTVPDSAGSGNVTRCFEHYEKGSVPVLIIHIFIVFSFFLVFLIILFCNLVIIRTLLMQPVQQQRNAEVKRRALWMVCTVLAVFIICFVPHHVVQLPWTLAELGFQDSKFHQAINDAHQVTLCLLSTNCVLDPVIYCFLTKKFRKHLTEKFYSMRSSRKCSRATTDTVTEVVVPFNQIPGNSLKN
T4 sequence (P08913 whole entry): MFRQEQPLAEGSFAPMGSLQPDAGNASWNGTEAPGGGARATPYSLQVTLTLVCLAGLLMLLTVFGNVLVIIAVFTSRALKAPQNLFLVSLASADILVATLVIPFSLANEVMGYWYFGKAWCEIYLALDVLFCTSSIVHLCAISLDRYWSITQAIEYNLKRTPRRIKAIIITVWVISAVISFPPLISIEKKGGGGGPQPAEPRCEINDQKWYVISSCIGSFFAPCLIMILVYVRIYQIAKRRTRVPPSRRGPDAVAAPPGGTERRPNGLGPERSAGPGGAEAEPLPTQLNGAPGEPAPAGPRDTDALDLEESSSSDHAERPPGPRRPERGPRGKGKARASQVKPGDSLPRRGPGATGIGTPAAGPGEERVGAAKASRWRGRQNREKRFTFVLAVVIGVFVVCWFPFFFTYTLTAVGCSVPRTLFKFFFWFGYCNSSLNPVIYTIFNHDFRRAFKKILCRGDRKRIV

With `COc1ccc(CCc2nc3cc(-c4c(C)noc4C)ccc3n2C[C@H](C)N2CCOCC2)cc1Cl` [Compound 59], the ΔTm at 10 µM on BRD3(1), at BRD2(1) and at BRD4(1) [1] was 1 to 2 °C each time. Further, in series [2], the “HLM stability: compound detected after 60 min” value was “no compound was detected”. Further, the IC50 worked out at 0.57 µM on alpha 2A (h); 0.15 µM at PDE5 (h) (non-selective); 0.11 µM at alpha 2C (h); 1.54 µM in series [4] (Homo sapiens, RKO); 1.5 µM in [4]; 0.54 µM at PAF (h). Further, the “FRAP half-time of fluorescence recovery (t1/2), GFP-tagged 3× CBP BRD” value in series [3] is on record as 0.60 s. In the series “Cytotoxicity assay”, half-maximal cytotoxicity (CC50 at 24 h) was put at 80 µM. In addition, half-maximal cytotoxicity in the series “Cytotoxicity assay” (CC50 at 72 h) was put at 8.1 µM.

Take `Cc1noc(C)c1-c1ccc2c(c1)nc(CCc1ccccc1)n2CCN1CCN(C)CC1` [Compound 18]: the thermal shift (ΔTm) (in general, the shift of the melting midpoint relative to a reference) at 10 µM at BRD4(1) [1] is 1.2 °C; on CBP [5], 2 °C; on BAZ2A [6], -0.52 °C; on ATAD2 [10], 0.03 °C. The IC50 at ATAD2 [7] amounted to 19 µM; at CBP [8] (read-out: AlphaScreen IC50 CBP) it was 2 µM; on BRD4(1) [9] it was 4.1 µM; on BAZ2A [11], 14 µM.

With `Cc1noc(C)c1-c1ccc2c(c1)nc(CCc1ccccc1)n2CCN1CCCC1` [Compound 15], the ΔTm at 10 µM on BRD4(1) [1] was determined as 2.7 °C; on CBP [5], 5.4 °C; at BRD9 [13] it was 1.5 °C. Also, the IC50 on BRD9 [12] was 100 µM; at CBP [8] (read-out: AlphaScreen IC50 CBP) it was 0.84 µM; on BRD4(1) [9] it was 9.1 µM.

For the compound `Cc1noc(C)c1-c1ccc2c(c1)nc(CCc1ccccc1)n2CCN1CCCCC1` [Compound 16], the IC50 was 12 µM on CECR2 [14]; over 25 µM at BRD9 [12]; 0.18 µM at CBP [8] (read-out: AlphaScreen IC50 CBP); 0.14 µM at p300 [20]; 2.4 µM at BRD4(1) [9]. The “ITC N (molar binding ratio of the ligand-protein interaction), p300” value on p300 [15] is 1.00 ± 0.0028. For the same compound, the “ITC ∆G, p300” value at p300 [15] is -36 kJ/mol. Besides, the “ITC ∆H, p300” value on p300 [15] was -25.5 ± 0.103 kJ/mol. The Kd (commonly the concentration at which binding is half-saturated) on p300 [15] is 0.347 µM; on CBP [16] (ITC Ka, CBP), 0.323 µM; on BRD4(1) [18] (ITC Ka, BRD4(1)), 0.952 µM. The “ITC 9T∆S, p300” value at p300 [15] (At T = 298.15 K) is -10.5 kJ/mol. Further, at CBP [16], the “ITC N (molar binding ratio of the ligand-protein interaction), CBP” value is given as 1.00 ± 0.00223. For the same compound, at CBP [16], the “ITC ∆G, CBP” value is -36.2 kJ/mol. Further, the “ITC ∆H, CBP” value on CBP [16] was -24.1 ± 0.077 kJ/mol. The “ITC 9T∆S, CBP” value on CBP [16] (At T = 298.15 K) is -12.1 kJ/mol. Moreover, the ΔTm at 10 µM at p300 [17] came out at 7.9 °C; on BRD4(1) [1] it was 2.7 °C; on CBP [5], 6.5 °C; at CECR2 [19] it was 1 °C. For the same compound, at BRD4(1) [18], the “ITC N (molar binding ratio of the ligand-protein interaction), BRD4(1)” value came to 1.10 ± 0.005. The “ITC ∆G, BRD4(1)” value on BRD4(1) [18] is -33.5 kJ/mol. Also, the “ITC ∆H, BRD4(1)” value on BRD4(1) [18] was -24.5 ± 0.141 kJ/mol. Moreover, the “ITC 9T∆S, BRD4(1)” value at BRD4(1) [18] (At T = 298.15 K) was -9 kJ/mol.

Consider `Cc1noc(C)c1-c1ccc2c(c1)nc(CCc1ccccc1)n2CCN1CCOCC1` [Compound 17], for which the “Selectivity for p300 over BRD4(1)” value at p300 [15] (from ITC Kd values) was found to be 2.7 fold. Besides, the ΔTm at 10 µM on BRD4(1) [1] was found to be 2.1 °C; at CBP [5], 3.9 °C; on ATAD2 [10], 0.16 °C. Besides, the “DSF ΔTm BRD4(1)” value at BRD4(1) [1] (10 µM) is 2.7 °C. Moreover, at CBP [5] (10 µM), the “DSF ΔTm CBP” value was 6.5 °C. The same compound yielded a Kd at BRD4(1) [18] (ITC Kd BRD4(1), 15 °C) of 0.95 ± 0.044 µM. Moreover, the “Selectivity for CBP over BRD4(1)” value at BRD4(1) [18] (from ITC Kd values) is reported as 3.0 fold. The “FRAP half-time of fluorescence recovery (t1/2), GFP-tagged 3× CBP BRD” value in [3] is on record as 0.66 s. The IC50 on ATAD2 [7] was 42 µM; on CBP [8] (mean ± SEM (number of measurements), read-out: CBP AlphaScreen pIC50 (converted)), 0.158 µM; on CBP [8] (read-out: AlphaScreen IC50 CBP), 0.82 µM; on BRD4(1) [9] it was 9.8 µM.

Regarding `Cc1cc(/N=N/c2cc(S(=O)(=O)O)c(C)cc2C)c(N)cc1O` [Compound 2], the IC50 in [21] was 5 µM.

For `CC(=O)n1c2c(c3ccccc31)CCCC2=O` [Compound 1], the Kd on CBP BRD was 19.6 µM. The “Effect on the p53–CBP interaction in a competition assay” value in the series on p53–CBP interaction was “block”.

Values taken from publication PMC4183655, “Discovery and Optimization of Small-Molecule Ligands for the CBP/p300 Bromodomains” (Journal of the American Chemical Society, 2014).
